Experimental data from patent EP1923473B1, “Bis-diglycolamides (BISDGA) as new extractants for lanthanides [Ln(III)] and actinides [An(III)] from aqueous high-level wastes” (Universidad Autónoma de Madrid, priority 2006, dated 2008).

Key:
Format in all cases: physicochemical
[1] = Eu/Am selectivity factor in extraction from 3 mol/L nitric acid; details: 0.1 mol/L in TPH/1-octanol (50:50)%vol; aqueous [HNO3] 3 mol/L
Experimental: (§1) 600 µL of the organic phase of the compound to be studied, previously equilibrated, were contacted with 600 µL of aqueous phase consisting of a 3 mol/L nitric acid solution spiked with 600 Bq of ^152Eu and 600 Bq of ^241Am. It was stirred vigorously by means of an oscillating shaker for 30 minutes and the phases were separated by centrifugation at 5000 rpm. 400 µL were taken from each of the phases for determining the concentration of the radionuclides ^152Eu and ^241Am. This determination was carried out by means of the high energy gamma spectrometry technique with a high-purity Ge detector (Canberra Inc.), using the 122 keV line for the determination of ^152Eu concentration and the 59.5 keV line for the determination of ^241Am concentration. The distribution coefficient was calculated by relating the concentration of each of the radionuclides in the organic phase and in the aqueous phase, according to the expression: DM = ([M]org)/([M]aq) [formula]
The Eu/Am selectivity factor was calculated by relating the corresponding distribution coefficients of Eu with those of Am in the same experimental conditions: SFEu/Am = DEu /DAm [formula]
(§2) The distribution coefficients and the selectivity factor of each of them were determined as indicated in sections A) to C).

Hydrolytic stability = details: 0.1 mol/L in n-dodecane/1-octanol (95:5)%vol; permanent contact with 3 mol/L nitric acid
Experimental: The organic solutions of the compounds to be tested were prepared and equilibrated with 3 mol/L nitric acid, as has been indicated in sections A) and B).
Then, 700 µL of the equilibrated organic phase were put in vials of an approximate volume of 2 mL and were contacted with 700 µL of 3 mol/L nitric acid. They were stirred vigorously in an oscillating shaker for periods of 7, 15, 24, 36, 42, 50 and 66 days. After each permanent contact period with the nitric acid aqueous phase, the extraction capability of the organic solution was evaluated, taking 600 µL of the corresponding organic phase and contacting it with 600 µL of aqueous phase formed by a 3 mol/L nitric acid solution spiked with 600 Bq of ^152Eu and with 600 Bq of ^241Am. It was stirred vigorously by means of an oscillating shaker for 15 minutes. The separation of the phases was carried out by centrifugation at 5000 rpm. 400 µL of each of the phases were taken for the determination of the concentration of ^152Eu and ^241Am, as in section C).
After the permanent contact periods with the 3 mol/L nitric acid solution, the extraction capability of the organic solutions of both compounds was evaluated with 3 mol/L nitric acid solutions containing 600 Bq of ^152 Eu and 600 Bq of ^241Am.

[2] = Extraction capability from aqueous 3 mol/L nitric acid; details: 0.1 mol/L in TPH/1-octanol (50:50)%vol; aqueous [HNO3] 3 mol/L spiked with 152Eu(III) and 241Am(III)
Experimental: The organic solutions of the extractant compounds to be tested were prepared dissolving an amount of the extractant compound in the solvent considered in each case to reach the ligand concentration of 0.1 mol/L. The solvents considered were 1-octanol, n-heptane, n-dodecane, the industrial solvent "TPH" (hydrogenated tetrapropylene) used in the "La Hague" reprocessing plant of the COGEMA company (Compagnie générale des matières nucléaires) and different mixtures "TPH/1-octanol or n-dodecane/1-octanol".
Once said solution was obtained, its equilibration was carried out. To that end, 800 µL of the organic solution of the compound to be studied were contacted with 800 µL of nitric acid of 3 mol/L concentration and it was stirred vigorously in an oscillating shaker for 5 minutes. The phases were separated by centrifugation at 5000 rpm. 800 µL of the said organic phase were again contacted with 800 µL of nitric acid of 3 mol/L concentration for another 5 minutes of vigorous shaking. The phases were separated by centrifugation, the organic phase being considered to be equilibrated.
as §1, §2

Radiolytic stability = details: 60Co irradiation, 4 kGy/h, up to 1000 kGy
Experimental: The tests of stability against irradiation were carried out in the NAYADE facility at CIEMAT site, with external ^60Co sources with an approximate activity of 5000 Ci, with a homogeneous irradiation flux. The dose rate applied in all the experiments was 4 kGy/h and integrated doses of 250 kGy, 500 kGy, 750 kGy and 1000 kGy were considered. The irradiation device consists of a metal cylinder which is introduced in a rack wherein the ^60CO sources are placed radially, such that the irradiation is homogeneous. The irradiation process is carried out submersing the device in a pool of water with a depth of 4 meters.
Irradiation tests of the solid compound (in the absence of solvent) and of the compound dissolved in the "n-dodecane/1-octanol (95:5)%vol" mixture, equilibrated with 3 mol/L nitric acid, were carried out. The organic solutions were prepared and equilibrated as detailed in the previous sections A) and B).
Once each programmed integrated dose was reached, the extraction capability of the organic samples was evaluated as detailed in section C).
The irradiation of compound 4 in solid form (in the absence of solvent) and dissolved at a 0.1 mol/L concentration in the "n-dodecane/1-octanol 1 (95:5)%vol" mixture, equilibrated with 3 mol/L nitric acid, was carried out. […] After each integrated dose, the extraction capability of Am(III) and Eu(III) was evaluated as described in section C. […]

Row | Substance | SFEu/Am [1] | stability against hydrolysis (Hydrolytic stability) | DAm [2] | DEu [2] | stability against radiolysis (Radiolytic stability)
1 | 2-Dioctylcarbamoylmethoxy-N-[3-[3-(2-dioctylcarbamoyl-methoxyacetylamino)propoxy]propyl]acetamide [Compound 18] | 6.0 | very stable against hydrolysis | 29 | 177 | very stable against radiolysis
2 | 2-Dioctylcarbamoylmethoxy-N-[3-[(2-dioctylcarbamoyl-methoxy-acetylamino)methyl]benzyl]acetamide [Compound 4] | 4.3 | very stable against hydrolysis | 33 | 141 | very stable against radiolysis
